Results: patent US20260356851A1, “TRICYCLIC COMPOUNDS AND USES THEREOF” (HUTCHMED LIMITED, priority 2023, published 2026)

What was measured:
Type in all cases: cell-based
[1] = target: T1, pERK1/2 (Thr202/Tyr204), NCI-1H358 (KRAS G12C) (Homo sapiens, UniProt P01116, G12C); test: Assay of intracellular pERK1/2 (Thr202/Tyr204) phosphorylation in NCI-H358 cells (KRAS G12C); details: pERK1/2, 2 days, read-out: NCI-H358 (KRAS G12C) IC50
T1 construct: pERK1/2 HTRF read-out
Summary of the method: (§1)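 Cells (10000-12000/well) exposed to 3-fold compound dilutions for 2 days at 37 °C, then lysed; pERK1/2 (Thr202/Tyr204) measured by HTRF with d2 and cryptate antibodies, 665/615 nm ratio.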

[2] = target: T2, pERK1/2 (Thr202/Tyr204), PANC-1 (KRAS G121D) (Homo sapiens, UniProt P01116, G12D); test: Assay of intracellular pERK1/2 (Thr202/Tyr204) phosphorylation in PANC-1 cells (KRAS G12D); details: pERK1/2, 2 days, read-out: PANC-1 (KRAS G12D) IC50
T2 construct: pERK1/2 HTRF read-out
T2 sequence (P01116 1-188 isoform P01116-2 G12D): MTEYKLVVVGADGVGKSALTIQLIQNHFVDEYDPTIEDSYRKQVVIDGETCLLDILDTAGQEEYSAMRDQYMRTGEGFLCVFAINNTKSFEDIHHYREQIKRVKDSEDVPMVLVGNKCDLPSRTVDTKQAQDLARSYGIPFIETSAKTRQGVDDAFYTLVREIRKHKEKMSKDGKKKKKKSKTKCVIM
Summary of the method: as §1

[3] = target: T3, pERK1/2 (Thr202/Tyr204), NCI-1H441 (KRAS G12V) (Homo sapiens, UniProt P01116, G12V); test: Assay of intracellular pERK1/2 (Thr202/Tyr204) phosphorylation in NCI-H441 cells (KRAS G12V); details: pERK1/2, 2 days, read-out: NCI-H441 (KRAS G12V) IC50
T3 construct: pERK1/2 HTRF read-out
T3 sequence (P01116 1-188 isoform P01116-2 G12V): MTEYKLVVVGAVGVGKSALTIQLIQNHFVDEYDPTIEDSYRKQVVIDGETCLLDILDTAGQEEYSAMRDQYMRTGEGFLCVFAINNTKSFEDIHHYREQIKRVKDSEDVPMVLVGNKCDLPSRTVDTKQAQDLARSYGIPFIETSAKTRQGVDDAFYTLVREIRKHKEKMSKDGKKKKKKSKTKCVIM
Summary of the method: as §1

T1 sequence (P01116 1-188 isoform P01116-2 G12C): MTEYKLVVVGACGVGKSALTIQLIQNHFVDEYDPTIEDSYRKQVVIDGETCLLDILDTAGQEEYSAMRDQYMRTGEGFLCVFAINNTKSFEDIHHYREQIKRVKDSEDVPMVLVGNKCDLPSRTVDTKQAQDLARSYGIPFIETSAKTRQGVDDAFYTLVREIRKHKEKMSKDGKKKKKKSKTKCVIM

Compound | IC50 [1] | IC50 [2] | IC50 [3]
C[C@H](c1cccnc1N)N1CCOc2nc(-c3c(C(F)(F)F)ccc4[nH]ncc34)c(F)c3nc(OC[C@@]45CCCN4C[C@H](F)C5)nc1c23 (single isomer, unassigned) [Compound 26, 3-((1R or 1S)-1-(4-fluoro-2-(((2R,7aS)-2-fluorotetrahydro-1H-pyrrolizin-7a(5H)-yl)methoxy)-5-(5-(trifluoromethyl)-1H-indazol-4-yl)-8,9-dihydro-10H-7-oxa-1,3,6,10-tetraazacyclohepta[de]naphthalen-10-yl)ethyl)pyridin-2-amine] | 0.886 µM | > 1 µM | > 1 µM
CC(c1cccnc1N)N1CCOc2nc(-c3c(C(F)(F)F)ccc4[nH]ncc34)c(F)c3nc(OC[C@@H]4CC(F)(F)CN4C)nc1c23 (stereo partly drawn) [Compound 40] | 0.018 µM | 0.934 µM | 0.031 µM
Cc1cc(N)cc(-c2nc3c4c(nc(OC[C@@]56CCCN5C/C(=C\F)C6)nc4c2F)N(C(C)c2cccnc2N)CCO3)c1C(F)(F)F (stereo partly drawn) [Compound 225] | 0.0002 µM | 0.0005 µM | 0.0005 µM
C[C@H](c1cccnc1N)N1CCOc2nc(-c3cc(O)cc(Cl)c3C3CC3)c(F)c3nc(OC[C@@H]4CCN4CC(F)F)nc1c23 (single isomer, unassigned) [Compound 20, 3-(10-((R or S)-1-(2-aminopyridin-3-yl)ethyl)-2-(((S)-1-(2,2-difluoroethyl)azetidin-2-yl)methoxy)-4-fluoro-9,10-dihydro-8H-7-oxa-1,3,6,10-tetraazacyclohepta[de]naphthalen-5-yl)-5-chloro-4-cyclopropylphenol] | 0.783 µM | > 1 µM | > 1 µM
[2H]C1([2H])CC[C@@]2(C([2H])([2H])Oc3nc4c5c(nc(-c6cc(N)c(F)c(C)c6C(F)(F)F)c(F)c5n3)OCCN4[C@@H](C)c3cccnc3N)C[C@@H](F)CN12 (single isomer, unassigned) [Compound 125, 3-((R or S)-1-(5-(5-amino-4-fluoro-3-methyl-2-(trifluoromehtyl)phenyl)-4-fluoro-2-(((2R,7aS)-2-fluorotetrahydro-1H-pyrrolizin-7a(5H)-yl-5,5-d2)methoxy-d2)-8,9-dihydro-10H-7-oxa-1,3,6,10-tetraazacyclohepta[de]naphthalen-10-yl)ethyl)pyridin-2-amine] | 0.012 µM | 0.057 µM | 0.04 µM
C[C@@H](c1cccnc1N)N1CCOc2nc(-c3c(C(F)(F)F)ccc4[nH]ncc34)c(F)c3nc(OC[C@@]45CCCN4C[C@H](F)C5)nc1c23 (single isomer, unassigned) [Compound 27, 3-((1R or 1S)-1-(4-fluoro-2-(((2R,7aS)-2-fluorotetrahydro-1H-pyrrolizin-7a(5H)-yl)methoxy)-5-(5-(trifluoromethyl)-1H-indazol-4-yl)-8,9-dihydro-10H-7-oxa-1,3,6,10-tetraazacyclohepta[de]naphthalen-10-yl)ethyl)pyridin-2-amine] | 0.002 µM | 0.106 µM | 0.011 µM
CC(c1cccnc1N)N1c2nc(OC[C@@]34CCCN3C[C@H](F)C4)nc3c(F)c(-c4c(C(F)(F)F)ccc5[nH]ncc45)nc(c23)OC[C@@H]1C (stereo partly drawn) [Compound 297] | 0.0005 µM | 0.003 µM | 0.001 µM
CCC(c1cccnc1N)N1CCOc2nc(-c3cc(N)c(F)c(Cl)c3C(F)(F)F)c(F)c3nc(OC[C@@]45CCCN4C[C@H](F)C5)nc1c23 (single isomer, unassigned) [Compound 214, 3-((R or S)-1-(5-(5-amino-3-chloro-4-fluoro-2-(trifluoromethyl)phenyl)-4-fluoro-2-(((2R,7aS)-2-fluorotetrahydro-1H-pyrrolizin-7a(5H)-yl)methoxy)-8,9-dihydro-10H-7-oxa-1,3,6,10-tetraazacyclohepta[de]naphthalen-10-yl)propyl)pyridin-2-amine] | 0.0002 µM | 0.004 µM | 0.0003 µM
Cc1cc2[nH]ncc2c(-c2nc3c4c(nc(OC[C@@]56CCCN5C[C@H](F)C6)nc4c2F)N(C(C)c2cccnc2N)[C@@H]2COCC[C@H]2O3)c1C(F)(F)F (stereo partly drawn) [Compound 392] | > 0.1 µM | > 0.1 µM | > 0.1 µM
CC(c1cccnc1N)N1c2nc(OC[C@@]34CCCN3C[C@H](F)C4)nc3c(F)c(-c4c5ccccc5cc5[nH]ncc45)nc(c23)OC[C@@H]1C (stereo partly drawn) [Compound 348] | 0.0002 µM | 0.0005 µM | 0.0005 µM
Cc1cc(N)cc(-c2nc3c4c(nc(OC[C@@H]5C[C@@H](F)CN5C)nc4c2F)N(C(C)c2cccnc2N)CCO3)c1C(F)(F)F (stereo partly drawn) [Compound 73] | 0.0009 µM | 0.031 µM | 0.002 µM
Cc1nc(N)cc(-c2nc3c4c(nc(OC[C@@H]5CCCN5C)nc4c2F)N(C(C)c2cccnc2N)CCO3)c1C(F)(F)F (stereo partly drawn) [Compound 97] | 0.016 µM | > 0.1 µM | 0.036 µM
CNc1ncccc1C(C)N1CCOc2nc(-c3cc(N)c(F)c(C)c3C(F)(F)F)c(F)c3nc(OC[C@@]45CCCN4C[C@H](F)C5)nc1c23 (single isomer, unassigned) [Compound 265, 3-((R or S)-1-(5-(5-amino-4-fluoro-3-methyl-2-(trifluoromethyl)phenyl)-4-fluoro-2-(((2R,7aS)-2-fluorotetrahydro-1H-pyrrolizin-7a(5H)-yl)methoxy)-8,9-dihydro-10H-7-oxa-1,3,6,10-tetraazacyclohepta[de]naphthalen-10-yl)ethyl)-N-methylpyridin-2-amine] | > 0.1 µM | > 0.1 µM | > 0.1 µM
Cc1ccc2[nH]nc(C)c2c1-c1nc2c3c(nc(OC[C@@]45CCCN4C[C@H](F)C5)nc3c1F)N(C(C)c1cccnc1N)[C@@H](C)CO2 (stereo partly drawn) [Compound 319] | 0.0009 µM | 0.01 µM | 0.001 µM
Cc1cc2[nH]ncc2c(-c2nc3c4c(nc(OC[C@@]56CCCN5C[C@H](F)C6)nc4c2F)N(C(C)c2cccnc2N)CCO3)c1C(F)(F)F (stereo partly drawn) [Compound 372] | 0.0003 µM | 0.004 µM | 0.0008 µM
CC(c1cccnc1N)N1CCOc2nc(-c3cccc4sc(N)nc34)c(F)c3nc(OC[C@@H]4CCN4CC(F)F)nc1c23 (stereo partly drawn) [Compound 17] | 0.029 µM | > 1 µM | 0.108 µM
CC(c1cccnc1N)N1CCOc2nc(-c3cc(O)cc4ccc(F)c(F)c34)c(F)c3ncnc1c23 (single isomer, unassigned) [Compound 30, (R or S)-4-(10-(1-(2-aminopyridin-3-yl)ethyl)-4-fluoro-9,10-dihydro-8H-7-oxa-1,3,6,10-tetraazacyclohepta[de]naphthalen-5-yl)-5,6-difluoronaphthalen-2-ol] | 0.031 µM | > 1 µM | 0.064 µM
CC(c1cccnc1N)N1c2nc(OC[C@@]34CCCN3C[C@H](F)C4)nc3c(F)c(-c4c5cn[nH]c5cc5ccc(F)c(F)c45)nc(c23)OC[C@@H]1C (stereo partly drawn) [Compound 369] | 0.0002 µM | 0.0004 µM | 0.0002 µM
Cc1cc2[nH]ncc2c(-c2nc3c4c(nc(OC[C@@]56CCCN5C[C@H](F)C6)nc4c2F)N(C(C)c2cccnc2N)[C@H]2CCOC[C@@H]2O3)c1C(F)(F)F (stereo partly drawn) [Compound 388] | > 0.1 µM | > 0.1 µM | > 0.1 µM
